The source of these data is PMC9403717, “Ruthenium complexes show potent inhibition of AKR1C1, AKR1C2, and AKR1C3 enzymes and anti-proliferative action against chemoresistant ovarian cancer cell line” (Frontiers in Pharmacology, 2022).

The target in the assay is T1, AKR1C3 (Homo sapiens, UniProt P42330).
T1 construct: made in house
T1 sequence (P42330 1-323): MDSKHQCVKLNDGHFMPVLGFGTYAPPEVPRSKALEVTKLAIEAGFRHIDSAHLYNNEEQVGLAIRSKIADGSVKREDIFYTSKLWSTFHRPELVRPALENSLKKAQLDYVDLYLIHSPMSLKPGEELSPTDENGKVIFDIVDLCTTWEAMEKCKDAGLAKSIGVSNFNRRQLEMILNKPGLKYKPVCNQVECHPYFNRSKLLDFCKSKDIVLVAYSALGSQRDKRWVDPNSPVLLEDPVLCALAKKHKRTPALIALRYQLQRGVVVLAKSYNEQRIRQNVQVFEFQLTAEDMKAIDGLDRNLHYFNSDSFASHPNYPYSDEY
Briefly: Inhibition of recombinant AKR1C3, oxidation of 1-acenaphthenol, progress-curve analysis. The class given is biochemical. Particulars: for k+3 / Ki / inhibitory effect (in words) / irreversible inhibition (in words) / k+2: AKR1C3; for k+3: irreversible binding of second inhibitor molecule to E-NADH-I; for fold less efficient inhibition of AKR1C3 compared to AKR1C1: from K3 values; for k+2: irreversible binding of second inhibitor molecule to E-NAD-I. On the procedure: To investigate the effect of ten selected ruthenium compounds, we measured their effect on the time course of oxidation of the artificial substrate 1-acenaphtenol by recombinant enzymes AKR1C1–3. The recombinant enzymes AKR1C1–AKR1C3 were prepared as described previously ([Brozic et al., 2006]). Since the artificial substrate is racemic, the oxidation follows a double exponential pattern as described previously ([Traven et al., 2015]). The in vitro catalytic activity of AKR1C1–3 enzymes was determined spectrophotometrically by monitoring the increase in NADH absorbance at 340 nm (ε(λ340) = 6220 M^−1cm^−1) in the presence of the substrate 1-acenaphthenol. Enzymatic reactions (300 µL) were performed in 100 mm potassium phosphate buffer (pH 9.0), 0.005% (v/v) TritonX-114, 5% (v/v) DMSO, containing 2.3 mm NAD^+ and 1-acenaphthenol at final concentrations of 90, 180, and 250 µM for AKR1C1, AKR1C2, and AKR1C3, respectively. A total of 5 µL of a tested compound in DMSO was added to the reaction mixture. The final concentrations of the tested compounds ranged from 1 to 200 μM, depending on the extent of inhibition (Supplementary Data). The reaction was started by adding 15 µL of AKR1C1, AKR1C2, or AKR1C3 dissolved in 1x PBS (pH 7.3) at final concentrations of 0.11, 0.16, and 1.5 µM, respectively. AKR1C1–3 activity was measured at 37°C for 3 h without shaking using a PowerWave XS microplate reader (Biotek; Winooski, VT, United States). Measurements at seven different concentrations were performed in duplicates or triplicates (Supplementary Figures S2). To mechanistically explain all the obtained progress curves for each ruthenium complex on each enzyme by a common reaction scheme, we extended the originally proposed scheme so that the interaction of the ruthenium complex with apo- and holoenzyme was allowed to be rapid and followed by a slow irreversible association of a second ruthenium complex molecule. However, the affinity of the Ru complexes for the apoenzymes was much lower so this part was excluded from the proposed kinetic model for clarity (Figure 4).
FIGURE 4 Reaction scheme for the oxidation of 1-acenaphtenol by AKR1C1-3 and its inhibition by ruthenium compounds. E represents apoenzyme, E-NAD and E-NADH represent holoenzyme with bound NAD^+ and NADH, respectively. A and B are enantiomers of substrate 1-acenaphtenol. Symbols which include I (ruthenium compound) represent holoenzyme in complex with one or two inhibitor molecules. KNAD, KNADH, and K2-3 are equilibrium constants and k+2–3 are second-order association rate constants for the binding of the second inhibitor molecule to the enzyme. The progress curves for each enzyme in the presence of ruthenium complexes were analyzed by the WEB server ENZO (https://enzo.cmm.ki.si/) designed exactly for such purposes ([Bevc et al., 2011]).

[1] abbreviates: reversible binding to holoenzyme E-NADH, read-out: K3.
[2] abbreviates: reversible binding to holoenzyme E-NAD, read-out: K2.

Like-named read-outs stand apart in the source and are kept apart here.

For `Cc1ccc(C(C)C)cc1.O=C(C=C([O][Ru][Cl])c1ccc2c(c1)OCO2)C(F)(F)F` [Compound 5], the “k+3” value stood at 0.5 M⁻¹ s⁻¹ and the “fold less efficient inhibition of AKR1C3 compared to AKR1C1” value (“fold less efficient inhibition of AKR1C3” below) is given as 6.3 fold. Also, the Ki under setting [1] stood at 0.15 µM.

For the molecule `Cc1ccc(C(C)C)cc1.O=[N+]([O-])c1ccc([O][Ru][Cl])c2ncccc12` [Compound 9, (η ^6-p-Cymene) (nitroxolinato)chloridoruthenium (II)], the “inhibitory effect (in words)” value is “very weak inhibitory effect” and the “irreversible inhibition (in words)” value is given as “virtually no irreversible inhibition”. Further, the Ki under setting [2] stood at 439 µM.

With `C1N2CN3CN1CP(C2)C3.Cc1ccc(C(C)C)cc1.F[P-](F)(F)(F)(F)F.O=[N+]([O-])c1ccc([O][Ru+])c2ncccc12` [Compound 10, (η ^6-p-cymene)(nitroxolinato)(pta)ruthenium(II) hexafluorophosphate], the “inhibitory effect (in words)” value is “Almost no inhibition” and the “irreversible inhibition (in words)” value was “no irreversible inhibition”. Besides, the Ki under setting [2] worked out at 561 µM.

`Cc1ccc(C(C)C)cc1.[Cl-].[O-]c1c(I)cc(Cl)c2cccnc12.[Ru+2]` [Compound 7]: the “inhibitory effect (in words)” value is recorded as “Almost no inhibition”.

`C1N2CN3CN1CP(C2)C3.Cc1ccc(C(C)C)cc1.F[P-](F)(F)(F)(F)F.O=C(C=C([O][Ru+])c1ccc2c(c1)OCO2)C(F)(F)F` [Compound 6]: the “k+2” value turned out to be 90 M⁻¹ s⁻¹. For the same molecule, the Ki under setting [2] was 92.7 µM.

Regarding `C1N2CN3CN1CP(C2)C3.Cc1ccc(C(C)C)cc1.F[P-](F)(F)(F)(F)F.O=C(C=C([O][Ru+])c1ccc(I)cc1)C(F)(F)F` [Compound 2], the “k+2” value was determined as 5.3 M⁻¹ s⁻¹. Under setting [2], the Ki was determined as 116 µM.

As for `CN(C)c1ccc(C(=CC(=O)C(F)(F)F)[O][Ru][Cl])cc1.Cc1ccc(C(C)C)cc1` [Compound 3, (η^6-p-cymene)chlorido(4,4,4-trifluoro-1-(4-(dimethylamino)phenyl)-1,3-butandionato)ruthenium(II)], the “k+2” value came to 10.2 M⁻¹ s⁻¹, the “k+3” value was found to be 1.2 M⁻¹ s⁻¹ and the “fold less efficient inhibition of AKR1C3” value was determined as 7.1 fold. Moreover, the Ki under setting [2] was 179 µM. Also, under setting [1], the Ki stood at 0.306 µM.

As to `Cc1ccc(C(C)C)cc1.O=C(C=C([O][Ru][Cl])c1ccc(I)cc1)C(F)(F)F` [Compound 1], the “k+3” value is 0.9 M⁻¹ s⁻¹ and the “fold less efficient inhibition of AKR1C3” value is 7.6 fold. Further, the Ki under setting [2] came out at 105 µM. For the same molecule, the Ki under setting [1] worked out at 0.163 µM.
